{"source": "patent US5110725A", "about": "“Optical probe for the cytochrome P-450 cholesterol side chain cleavage enzyme” (The United States of America as represented by the United …, priority 1991, dated 1992)", "key": {"P-450scc enzyme [1]": {"target": "T1, P-450scc enzyme (Gallus gallus, UniProt O13254)", "T1 sequence (O13254 32-508)": "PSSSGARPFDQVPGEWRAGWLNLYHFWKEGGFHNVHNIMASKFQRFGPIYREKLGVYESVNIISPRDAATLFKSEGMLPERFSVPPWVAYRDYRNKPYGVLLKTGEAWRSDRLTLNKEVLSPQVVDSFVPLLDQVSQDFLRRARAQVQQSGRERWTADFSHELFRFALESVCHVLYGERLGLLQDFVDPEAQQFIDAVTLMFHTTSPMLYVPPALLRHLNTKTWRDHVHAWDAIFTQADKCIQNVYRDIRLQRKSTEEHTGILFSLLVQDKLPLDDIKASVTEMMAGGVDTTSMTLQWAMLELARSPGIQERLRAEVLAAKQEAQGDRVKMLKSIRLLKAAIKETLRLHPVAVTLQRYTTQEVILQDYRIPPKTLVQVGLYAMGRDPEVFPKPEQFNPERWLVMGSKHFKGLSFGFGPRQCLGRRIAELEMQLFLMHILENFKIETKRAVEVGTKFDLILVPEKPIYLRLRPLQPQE", "assay": "Spectrofluorometry of resorufin production in mitochondrial preparations from chicken granulosa and MA-10 cells", "format": "biochemical", "details": "for effect of inhibitor on observed resorufin fluorescence: added to steroidogenic mitochondrial preparations incubated with the probe", "experimental": "(§1) A saturated stock solution of probe 10 was made in 95% ethanol and filtered with a 0.2 μm filter to a concentration of 100 μM. Probe 10 was added at 1:50 or 1:100 dilutions to cell or mitochondria suspensions.\n(§2) Cell Preparations: Granulosa cell layers were collected separately from the 5 largest preovulatory follicles of laying hens and cells were dispersed by collagenase digestion (Endocrinology 122:651-658). The cell concentration was adjusted to 1×10^6 cells/mL in modified medium 199 (no phenol red; added 25 mM HEPES, 0.35 g/L sodium bicarbonate, 100 mg/L 1-glutamate, and 1 g/L bovine serum albumin). The MA-10 cells (Endocrinology 108:88-95) were grown in RPMI-1640 medium supplemented with 15% horse serum and used three days after plating. Cell cultures of the Chinese hamster ovary (CHO) cell line were grown in spinner flasks with Ham's F-10 medium supplemented with 15% bovine calf serum. Media were obtained from Gibco BRL (Gaithersburg, Md.) and sera were obtained from HyClone Laboratories (Logan, Utah). Except where indicated all other reagents for cell preparations were obtained from Sigma Chemical Co. (St. Louis, Mo.). Cells in suspension (1×10^6 /mL) were kept on ice prior to use and at 37° C. during all incubations with probe 10.\n(§3) Spectrofluorometry: Fluorescence emission measurements were obtained on a SPEX Fluorolog-II spectrofluorometer (SPEX Industries, Inc., Edison, N.J.) fitted with a thermostatted cuvette holder and interfaced to an IBM-AT computer for data collection and processing. Resorufin fluorescence was measured from 550-700 nm (8 nm slit width) with 530 nm excitation (10 nm slit width). Spectra were background-corrected by spectral subtraction of the initial (zero) time point. Samples were incubated at 37° C. during the experiment."}, "[2]": {"tested_on": "nonsteroidogenic CHO cells", "assay": "Spectrofluorometry with mitochondrial preparations from nonsteroidogenic CHO cells", "format": "biochemical, Chinese hamster", "experimental": "as §1\nas §2, with “Except where indicated all other reagents for cell preparations were obtained from Sigma Chemical Co. (St. Louis, Mo.). Cells in suspension (1×10^6 /mL) were kept on ice prior to use and at 37° C. during all incubations with probe 10.” left out\nas §3, with “Spectra were background-corrected by spectral subtraction of the initial (zero) time point. Samples were incubated at 37° C. during the experiment.” left out"}, "P-450scc enzyme [3]": {"tested_on": "P-450scc enzyme", "assay": "Spectrofluorometry of probe metabolism in MA-10 and granulosa cell suspensions", "format": "cell-based", "experimental": "as §1\n(§4) Cell Preparations: Granulosa cell layers were collected separately from the 5 largest preovulatory follicles of laying hens and cells were dispersed by collagenase digestion (Endocrinology 122:651-658). The cell concentration was adjusted to 1×10^6 cells/mL in modified medium 199 (no phenol red; added 25 mM HEPES, 0.35 g/L sodium bicarbonate, 100 mg/L 1-glutamate, and 1 g/L bovine serum albumin). […]\nas §3, with “Spectra were background-corrected by spectral subtraction of the initial (zero) time point. Samples were incubated at 37° C. during the experiment.” left out\nTo confirm cellular metabolism, both MA-10 and granulosa cell suspensions were incubated with varying concentrations of the probe substrate. Fluorescence emission was monitored at discrete times from 0-4 h. […] Based on the amount of fluorescence in a typical cell incubation the cumulative conversion of the probe was in the concentration range of 100-300 pM. […]"}, "granulosa or MA-10 cells": {"tested_on": "granulosa or MA-10 cells", "assay": "Progesterone radioimmunoassay after incubation of granulosa or MA-10 cells with the probe", "format": "cell-based", "details": "3-5 h incubation, 1-2 μM probe", "experimental": "as §4, with “albumin). The MA-10 cells (Endocrinology 108:88-95) were grown in RPMI-1640 medium supplemented with 15% horse serum and used three days after plating. Cell cultures of the Chinese hamster ovary (CHO) cell line were grown in spinner flasks with Ham's F-10 medium supplemented with 15% bovine calf serum.” for “albumin).”\nTo confirm cellular metabolism, both MA-10 and granulosa cell suspensions were incubated with varying concentrations of the probe substrate. Fluorescence emission was monitored at discrete times from 0-4 h. […] Based on the amount of fluorescence in a typical cell incubation the cumulative conversion of the probe was in the concentration range of 100-300 pM. After long (3-5 h) incubations of granulosa or MA-10 cells with a high concentration (1-2 μM) of the P-450scc probe, a two-fold accumulation of progesterone over the background progesterone content of the cells was measured by specific progesterone radioimmunoassay (Endocrine Sciences, Tarzana, Calif.)."}, "granulosa cells [4]": {"tested_on": "granulosa cells", "assay": "Fourier transform flow cytometry of substrate metabolism in individual granulosa cells", "format": "cell-based, laying hens", "experimental": "as §2, with “Except where indicated all other reagents for cell preparations were obtained from Sigma Chemical Co. (St. Louis, Mo.). Cells in suspension (1×10^6 /mL) were kept on ice prior to use and at 37° C. during all incubations with probe 10.” left out\nThe Fourier transform flow cytometer was used to track the metabolism of the fluorogenic substrate in individual granulosa cells. […] Using this instrument, cellular fluorescence of the substrate is resolved from the cellular fluorescence of the product, resorufin anion, based on their unique spectral characteristics during the uptake and metabolism of the P-450scc probe.\n(§5) By monitoring spectral changes in the cellular fluorescence at discrete time points from 30 min to 5 h with the FTCS-1 an increased metabolism of the substrate to the product resorufin was observed. […]"}, "[5]": {"tested_on": "nonsteroidogenic CHO cells", "assay": "Fourier transform flow cytometry with nonsteroidogenic CHO cells", "format": "cell-based, Chinese hamster", "experimental": "as §2\nA single argon laser tuned to 514 nm was used to excite both the substrate and product. […]\nas §5"}, "granulosa cells [6]": {"tested_on": "granulosa cells", "assay": "Conventional two-laser flow cytometric analysis of P-450scc activity in granulosa cells", "format": "cell-based, laying hens", "details": "37° C., 5 min to 2 h", "experimental": "as §2\nUptake of the substrate (green fluorescence) plateaued at 30 minutes, presumably as the cells equilibrated with the P-450scc probe in solution."}, "[7]": {"format": "physicochemical", "details": "95% ethanol", "experimental": "as §1"}, "[8]": {"assay": "Fluorescence quantum efficiency relative to the resorufin anion", "format": "physicochemical", "details": "resorufin conjugated at C-22", "from_the_text": "Referring now to FIG. 2, the P-450scc probe 10 is a cholene-based steroid covalently conjugated at the C-22 position to resorufin. As a result of this conjugation the resorufin fluorescence is shifted and has a 40-fold lower quantum efficiency than the resorufin anion. Specificity of probe 10 for the P-450scc enzyme is achieved by incorporating known structural and stereochemical features to the cholene-ring for enzyme recognition. Generation of a fluorescent signal is obtained by release of the resorufin moiety 16 by the side chain cleavage enzyme.\nResorufin (7-hydroxy-3H-phenoxazin-3-one) was chosen as a fluorogenic reporter because of its advantageous spectral properties and its modest size. […] Presumably, metabolism of a resorufin ether 10 by P-450scc proceeds by hydroxylation at the C-1 position of the ether side chain, to yield a resorufin hemiacetal that undergoes cleavage to afford the highly fluorescent resorufin anion. The fluorescence signal generated by the formation of resorufin anion is a quantitative indicator of enzyme activity."}, "P-450scc": {"tested_on": "P-450scc", "assay": "Selectivity of the probe in intact mitochondria and cells", "format": "cell-based", "experimental": "as §1"}}, "data": [{"smiles": "CCC1(c2ccc(N)cc2)CCC(=O)NC1=O", "note": "(stereo not shown) [aminoglutethimide]", "values": [{"measurement": "effect of inhibitor on observed resorufin fluorescence", "setting": "P-450scc enzyme [1]", "result": "attenuated the observed fluorescence"}]}, {"smiles": "CC(=O)N1CCN(c2ccc(OCC3COC(Cn4ccnc4)(c4ccc(Cl)cc4Cl)O3)cc2)CC1", "note": "(stereo not shown) [ketoconazole]", "values": [{"measurement": "effect of inhibitor on observed resorufin fluorescence", "setting": "P-450scc enzyme [1]", "result": "attenuated the observed fluorescence"}]}, {"smiles": "C[C@H](COc1ccc2nc3ccc(=O)cc-3oc2c1)[C@H]1CC[C@H]2[C@@H]3CC=C4C[C@@H](O)CC[C@]4(C)[C@H]3CC[C@]12C", "note": "[probe 10, 22-phenoxazonoxy-5-cholene-3β-ol]", "values": [{"measurement": "resorufin production", "setting": "P-450scc enzyme [1]; steroidogenic mitochondria (chicken granulosa, MA-10), 30 min to 5 h, substrate 0.01 to 2 μM", "result": "resorufin production was observed"}, {"measurement": "production of fluorescence", "setting": "[2]", "result": "no production of fluorescence"}, {"measurement": "resorufin fluorescence over time", "setting": "P-450scc enzyme [3]; MA-10 and granulosa cell suspensions, 0-4 h, varying probe concentrations", "result": "linear increase in resorufin fluorescence"}, {"measurement": "cumulative conversion of the probe", "setting": "P-450scc enzyme [3]; typical cell incubation, based on amount of fluorescence", "result": "100 to 300", "unit": "pM"}, {"measurement": "accumulation of progesterone over background progesterone content of the cells", "setting": "granulosa or MA-10 cells", "result": "two-fold"}, {"measurement": "average ratio of the two fluorescent components (substrate and resorufin) over time", "setting": "granulosa cells [4]; 30 min to 5 h", "result": "linear increase"}, {"measurement": "alignment of the cell distribution with the product resorufin", "setting": "granulosa cells [4]; after 5 h", "result": "~100", "unit": "%"}, {"measurement": "cellular fluorescence spectrum", "setting": "[5]; CHO cells, 3 h incubation", "result": "remained primarily consistent with the substrate spectrum"}, {"measurement": "metabolism of the substrate to resorufin", "setting": "[5]; nonsteroidogenic CHO cells", "result": "no evidence of significant metabolism"}, {"measurement": "product (red fluorescence) in cells during incubation", "setting": "granulosa cells [6]", "result": "continued to increase"}, {"measurement": "time at which uptake of the substrate (green fluorescence) plateaued", "setting": "granulosa cells [6]", "result": 30, "unit": "min"}, {"measurement": "concentration of saturated stock solution", "setting": "[7]", "result": 100, "unit": "µM"}, {"measurement": "quantum efficiency lower than the resorufin anion", "setting": "[8]", "result": 40, "unit": "fold"}, {"measurement": "selectivity", "setting": "P-450scc", "result": "selective for P-450scc activity"}]}]}
